The text below walks through data of US8073630B2, “Pharacogenetic method for prediction of the efficacy of methotrexate monotherapy in recent-onset arthritis” (Exagen Diagnostics, Inc., priority 2006, dated 2011).

The test system of data set [1] is patients with recent onset RA. The data set is described as follows: MTX monotherapy efficacy in recent-onset RA patients (BeSt study subcohort), DAS response at 6 months. The data set is classed as in vivo, human. The text has this: The 205 patients enrolled in this study comprised a subcohort of the 508 patients who participated in the BeSt study. (5) The BeSt study is a randomized, multicenter, single-blinded, clinical study comparing the clinical efficacy of four different treatment strategies in recent onset RA including sequential monotherapy (n=126 starting with MTX), step up to combination therapy of MTX with sulfasalazine (SSZ, n=121 starting with MTX), initial combination therapy with MTX, SSZ and a high tapered dose of prednisolone (n=133), or initial biologic therapy with infliximab plus MTX (n=128). Inclusion criteria for patients in the study comprise the American College of Rheumatology (ACR) 1987 criteria for RA (23), an age ≧18 years, and a disease duration of <2 years. Patients were also required to have active RA, defined as ≧6 swollen joints (out of 66) and ≧6 tender joints (out of 68) and either an erythrocyte sedimentation rate (ESR) ≧28 mm/hour or a score of ≧20 mm on 100 mm visual analogue scale (VAS) for patient's assessment of global health (0=best, 100=worst). […]
Patients allocated initial monotherapy with MTX with available DNA samples (n=205) were included in the current analysis. […] A research nurse who was blinded to the allocated treatment group assessed the DAS every 3 months. […]

Another data set has as its system RA patients. Kind of data set: Replication cohort of RA patients on MTX monotherapy (BeSt and UMCN), response at 6 months. It is filed as in vivo, human. Particulars: replication group n=38 (n=17 responders); average MTX dosage 19 mg weekly (range 5-25 mg weekly). The procedure:
Thirty-eight patients were recruited to replicate the genetic model. The validation cohort data were collected after development of the predictive model, but the investigators were blinded to either the clinical parameters or the genotyping results for the replication group. Fourteen patients were available from the BeSt study; they were treated with initial MTX monotherapy, but DNA samples were obtained after the clinical pharmacogenetic model was developed. Twenty-four patients were available from the RA cohort of the rheumatology department at the University Medical Center Nijmegen (UMCN), consisting of 553 patients (5, 51). Patients were eligible for the replication cohort if they fulfilled the ACR 1987 criteria for RA, started with MTX monotherapy, had not been treated previously with DMARDs other than antimalarial agents, and had disease duration of less than 2 years. In addition, clinical data comprising the prediction model and DNA samples had to be available. In the UMCN cohort, 352 patients were recorded as having received MTX at any time point. […]
The response at 6 months after starting MTX treatment in the group of RA patients (n=38) in the replication model was 45% (n=17), with an average MTX dosage of 19 mg weekly (range 5-25 mg weekly). […] The calculated simple scores in the replication group of RA patients ranged from 1 to 9. […]

Take `CN(Cc1cnc2nc(N)nc(N)c2n1)c1ccc(C(=O)N[C@@H](CCC(=O)O)C(=O)O)cc1` [MTX, Methotrexate]: in data set [1] (at 6 months of treatment with MTX, oral MTX 7.5 mg weekly increasing to 15 mg, stepwise to 25 mg weekly, with folic acid 1 mg daily, 186 patients evaluable (n=87 responders)), the “responders (DAS of ≦2.4, good clinical response)” value is 47 % of patients. The “patients who discontinued MTX permanently after experiencing ADEs” value in data set [1] (of the 205 patients, within first 6 months) stood at 10 patients. In addition, in the data set with RA patients, the “response at 6 months after starting MTX treatment” value is 45%.
